Earlier results as cited in publication PMC3389233 (Bioorganic & medicinal chemistry, 2012).
Where two headings read alike, the source gives them in different places.

Target: HPPK

| Compound | Kd (rapid addition of HP after MgATP binding) | Kd (MgATP binding to the enzyme first) [µM] |
| --- | --- | --- |
| Nc1nc2c(c(=O)[nH]1)N=C(CO)CN2 [HP, 6-hydroxymethyl-7,8-dihydropterin] | sub-µM range | – |
| Nc1ncnc2c1ncn2[C@@H]1O[C@H](COP(=O)(O)OP(=O)(O)OP(=O)(O)O)[C@@H](O)[C@H]1O [MgATP] | – | 2.6 to 4.5 |
